According to the NIST ThermoML archive (doi:10.1021/je201193d):
± gives the expanded uncertainty stated by the source.

Details: Crystal; visual observation

Row | SMILES | Normal melting temperature
1 | CCC(=O)O [propanoic acid] | -20.60 ± 0.39 °C
2 | C=CC(=O)O [propenoic acid] | 12.8 ± 0.39 °C
